# US9487553B2, “Boranophosphate analogues of cyclic nucleotides” (BIOLOG LIFE SCIENCE INSTITUTE FORSCHUNGSLABOR UND …, priority 2011, dated 2016)
# Values joined by “and” are separate entries in the source; they are usually repeats but may differ in a detail not shown here. Equal entries are not always repeated.
# Experiments:
# [1] = Degradation Example 2: oxidation with hydrogen peroxide, monitored by HPLC; format: physicochemical
# Protocol: Thus, 0.05 μmol of the Rp-isomer of 8-(4-chlorophenylthio)adenosine-3′,5′-cyclic boranophosphate (Rp-8-pCPT-cAMPB, example 9), was treated stepwise with 5 μl portions of 30% aqueous hydrogen peroxide solution (Merck) every 30 min. The oxidation process was monitored by reversed phase HPLC (RP-18, 25 Vol.-% acetonitrile, 20 mM triethylammonium formate buffer, pH 6.1, 2 ml/min, UV 280 nm). As a control the corresponding cyclic nucleotide with phosphorothioate modification (Sp-8-pCPT-cAMPS, Biolog) was added. In summary, 15 μl peroxide, were applied.
# [2] = Degradation Example 5: oxidation with hydrogen peroxide, monitored by HPLC; format: physicochemical; conditions: after 1 hour at RT
# Protocol: Thus, the cyclic boranophosphate 6-chloropurine-1-β-D-ribofuranoside-3′,5′-cyclic boranophosphate, Rp-isomer (Rp-6-Cl-cPuMPB, example 42) together with the corresponding phosphorothioate 6-chloropurine-1-β-D-ribofuranoside-3′,5′-cyclic phosphorothioate, Sp-isomer (Sp-6-Cl-cPuMPS, Biolog) as a control were treated repeatedly with μl doses of 30% aqueous hydrogen peroxide (Merck). During one hour, oxidative degradation was monitored by HPLC (RP-18, 15 Vol.-% acetonitrile, 20 mM triethylammonium formate buffer, pH 6.5, 2 ml/min., UV 263 nm) and corresponding peak areas were recorded, integrated and compared (Tab. 3).
# protein kinase G I α = molecular target: T1, protein kinase G I α (Homo sapiens, UniProt Q13976); assay: Protein kinase G I alpha activation, phosphotransferyl assay; format: biochemical; conditions: 10 nM, 100 nM and 1 μM
# T1 sequence (Q13976 1-671): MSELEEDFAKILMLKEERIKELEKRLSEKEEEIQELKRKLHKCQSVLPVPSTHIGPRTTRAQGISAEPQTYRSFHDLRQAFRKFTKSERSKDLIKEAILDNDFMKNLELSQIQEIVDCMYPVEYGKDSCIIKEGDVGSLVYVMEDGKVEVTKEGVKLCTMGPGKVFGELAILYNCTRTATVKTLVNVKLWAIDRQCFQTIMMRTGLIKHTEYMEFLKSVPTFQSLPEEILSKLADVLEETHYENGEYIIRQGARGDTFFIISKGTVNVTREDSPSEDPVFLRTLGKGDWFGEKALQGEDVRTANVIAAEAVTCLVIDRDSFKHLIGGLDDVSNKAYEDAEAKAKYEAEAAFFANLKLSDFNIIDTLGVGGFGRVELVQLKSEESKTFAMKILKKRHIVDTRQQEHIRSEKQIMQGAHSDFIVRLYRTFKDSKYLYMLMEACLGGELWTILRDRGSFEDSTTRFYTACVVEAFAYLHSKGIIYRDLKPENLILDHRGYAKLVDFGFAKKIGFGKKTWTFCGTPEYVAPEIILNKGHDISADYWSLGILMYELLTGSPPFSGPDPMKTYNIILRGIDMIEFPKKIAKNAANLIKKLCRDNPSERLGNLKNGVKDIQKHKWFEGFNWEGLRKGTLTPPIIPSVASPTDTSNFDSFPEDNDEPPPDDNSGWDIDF
# Text: Next, the activity profile of some cyclic boranophosphates disclosed in this invention has also been investigated on protein kinase G I α (FIGS. 8 and 9). Potential activatory potential towards the enzyme has been determined by a standard phosphotransferyl assay protocol according to Dostmann et al. (Dostmann, W. R.; Nickl, C.; Thiel, S.; Tsigelny, I.; Frank, R.; and Tegge, W. J., Pharmacol. Ther., 82, 373-387 (1999). FIG. 8 depicts the activity (μmol×min^−1×mg^−1) overview of six different cyclic boranophosphate analogues with protein kinase G type I at 10 nM, 100 nM and 1 μM. BLG-9108: […]; BLG-9110: Sp-8-Br-cAMPB; BLG-9111: Rp-8-Br-cAMPB; BLG-9112: Sp-8-Br-cGMPB; BLG-9113: Rp-8-Br-cGMPB; control: cyclic GMP.
# [3] = molecular target: protein kinase A type I alpha holoenzyme (Homo sapiens, UniProt P10644); assay: Standard photometric (Cook) assay with protein kinase A type I alpha holoenzyme; format: biochemical; conditions: holoenzyme RIα
# Text: In a first experiment, the biological activity of the Rp- and Sp-isomer of 8-bromoadenosine-3′,5′-cyclic boranophosphate (examples 1 and 2) has been tested with the holoenzyme of protein kinase A type I alpha (FIGS. 3 and 4) using a standard photometric assay (Cook, P. F.; Neville, M. E., Jr.; Vrana, K. E.; Hartl, F. T. and Roskoski, R., Jr., Biochemistry 21, 5794-5799 (1982)).
# As a control, two boranophosphate analogues with a 2′-O-methyl modification (Rp-2′-O-Me-cAMPB and Sp-2′-O-Me-cAMPB, examples 7 & 8) have been tested by the same type of assay with protein kinase A type I alpha as well.
# FIG. 5 depicts the activity overview of four different cyclic boranophosphate analogues with protein kinase A type I alpha holoenzyme. 9108: Sp-2′-O-Me-cAMPB; 9109: Rp-2′-O-Me-cAMPB; 9110: Sp-8-Br-cAMPB; 9111: Rp-8-Br-cAMPB; controls: B 001: Rp-8-Br-cAMPS. Control: cAMP. “Cook Assay” with Holoenzyme RIα.
# [4] = Degradation Example 3: oxidation with hydrogen peroxide, monitored by HPLC; format: physicochemical; conditions: after 90 min. at RT
# Protocol: Thus, 0.1 μmol of the Rp-isomer of 8-(4-chlorophenylthio)-2′-O-methyladenosine-3′,5′-cyclic boranophosphate (Rp-8-pCPT-2′-O-Me-cAMPB, example 44), dissolved in 300 μl of water, was treated stepwise with 2 μl portions of 30% aqueous hydrogen peroxide solution (Merck). The oxidation process was monitored again by reversed phase HPLC (RP-18, 30 Vol.-% acetonitrile, 20 mM triethylammonium formate buffer, pH 8.3, 2 ml/min, UV 282 nm). As a control, the corresponding cyclic nucleotide with phosphorothioate modification (Sp-8-pCPT-2′-O-Me-cAMPS, Biolog) was added. In summary, 20 μl peroxide, were applied.
# PDE 1 from bovine heart = assay: Resistance towards phosphodiesterase: incubation with PDE 1 from bovine heart, HPLC; conditions: PDE 1, bovine heart
# Protocol: For this purpose 0.1 μmol of Rp-8-bromoadenosine-3′,5′-cyclic boranophosphate (example 1) and Sp-8-bromoadenosine-3′,5′-cyclic boranophosphate […] dissolved in TRIS buffer pH 7.2 containing calcium chloride and calmodulin and incubated with PDE type I from bovine brain (Sigma-Aldrich) at 37° C. Activity of the enzyme was checked by hydrolysis of cyclic AMP. Stability was monitored by HPLC (RP-18, 11 Vol.-% propanol-2, 20 mM TEAF buffer, pH 6.8, 1 ml/min., UV 264 nm). […] This strategy of testing PDE performance was applied accordingly in degradation examples 10 and 11.
# Thus, Rp-8-Br-cAMPB (example 1) and Sp-8-Br-cAMPS (Biolog, Bremen/Germany) were incubated with PDE 1 from bovine heart (Sigma-Aldrich) and monitored by HPLC as described above.
# Rp-2′-O-Me-cAMPB (example 7) and Sp-2′-O-Me-cAMPS (Biolog, Bremen/Germany).
# PDE IV (A4B) = molecular target: T2, PDE IV (A4B) (Homo sapiens, UniProt P27815); assay: Stability against PDE IV, HPLC; format: in vitro ADME; conditions: human, Houslay lab), pH 7.2, read-out: half life of hydrolysis
# T2 construct: Houslay lab, Glasgow/Scotland (obtained from another laboratory)
# Protocol: Next, stability of the disclosed boranophosphates against PDE IV (A4B, Houslay lab, Glasgow/Scotland) was tested in similar experiments as described above.
# [5] = Degradation Example 7: oxidation with hydrogen peroxide, monitored by HPLC; format: physicochemical; conditions: for oxidation by peroxide: 5 portions of 30% H2O2; for HPLC Area %: hydrogen peroxide
# Protocol: The degradation experiment was monitored by HPLC (RP-18, 15 Vol.-% acetonitrile, 20 mM triethylammonium formate buffer, pH 6.5, 1 ml/min., UV 270 nm) and peak areas were recorded.
# [6] = Degradation Example 1: oxidation with hydrogen peroxide, monitored by HPLC; format: physicochemical; conditions: after further addition of 10 μl of 30% H2O2, two hours at RT
# Text: In order to check out the stability of the boranophosphates described in this invention towards oxidising conditions in comparison to the corresponding phosphorothioates, 0.1 μmol of the sodium salts of each, Rp-8-bromoadenosine-3′,5′-cyclic boranophosphate (Rp-8-Br-cAMPB, example 1), Sp-8-bromoadenosine-3′,5′-cyclic boranophosphate (Sp-8-Br-cAMPB, example 2), Rp-8-bromoadenosine-3′,5′-cyclic phosphorothioate (Rp-8-Br-cAMPS, Biolog) and Sp-8-bromoadenosine-3′,5′-cyclic phosphorothioate (Sp-8-Br-cAMPS, Biolog) were dissolved in 100 μl of eluent and the mixture was analyzed by HPLC (RP-18, 11% acetonitrile, 20 mM triethylammonium formate buffer, pH 6.1, 1.5 ml/min, UV 258 nm). The following elution profile was recorded: Rp-8-Br-cAMPS (5:13 min.)<Sp-8-Br-cAMPS (7:23 min.)<Sp-8-Br-cAMPB (9:13 min.)<Rp-8-Br-cAMPB ([…].).
# Subsequently, aqueous hydrogen peroxide (Merck) was added in small portions while the stability of the four compounds was permanently monitored over time.
# 10 μl of H2O2 (0.3%) as well as 10 μl of 3% H2O2 were added to no effect.
# Sequence of protein kinase A type I alpha holoenzyme (P10644 whole entry): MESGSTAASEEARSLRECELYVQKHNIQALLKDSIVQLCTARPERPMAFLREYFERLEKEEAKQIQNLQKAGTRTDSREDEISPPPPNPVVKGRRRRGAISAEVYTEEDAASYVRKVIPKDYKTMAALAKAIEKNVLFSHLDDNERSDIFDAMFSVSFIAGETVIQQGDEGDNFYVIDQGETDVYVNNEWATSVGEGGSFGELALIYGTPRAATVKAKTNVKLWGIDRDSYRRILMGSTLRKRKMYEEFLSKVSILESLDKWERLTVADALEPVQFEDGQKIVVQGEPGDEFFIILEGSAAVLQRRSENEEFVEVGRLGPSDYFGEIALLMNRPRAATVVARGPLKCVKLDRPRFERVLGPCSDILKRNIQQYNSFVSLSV
# T2 sequence (P27815 whole entry): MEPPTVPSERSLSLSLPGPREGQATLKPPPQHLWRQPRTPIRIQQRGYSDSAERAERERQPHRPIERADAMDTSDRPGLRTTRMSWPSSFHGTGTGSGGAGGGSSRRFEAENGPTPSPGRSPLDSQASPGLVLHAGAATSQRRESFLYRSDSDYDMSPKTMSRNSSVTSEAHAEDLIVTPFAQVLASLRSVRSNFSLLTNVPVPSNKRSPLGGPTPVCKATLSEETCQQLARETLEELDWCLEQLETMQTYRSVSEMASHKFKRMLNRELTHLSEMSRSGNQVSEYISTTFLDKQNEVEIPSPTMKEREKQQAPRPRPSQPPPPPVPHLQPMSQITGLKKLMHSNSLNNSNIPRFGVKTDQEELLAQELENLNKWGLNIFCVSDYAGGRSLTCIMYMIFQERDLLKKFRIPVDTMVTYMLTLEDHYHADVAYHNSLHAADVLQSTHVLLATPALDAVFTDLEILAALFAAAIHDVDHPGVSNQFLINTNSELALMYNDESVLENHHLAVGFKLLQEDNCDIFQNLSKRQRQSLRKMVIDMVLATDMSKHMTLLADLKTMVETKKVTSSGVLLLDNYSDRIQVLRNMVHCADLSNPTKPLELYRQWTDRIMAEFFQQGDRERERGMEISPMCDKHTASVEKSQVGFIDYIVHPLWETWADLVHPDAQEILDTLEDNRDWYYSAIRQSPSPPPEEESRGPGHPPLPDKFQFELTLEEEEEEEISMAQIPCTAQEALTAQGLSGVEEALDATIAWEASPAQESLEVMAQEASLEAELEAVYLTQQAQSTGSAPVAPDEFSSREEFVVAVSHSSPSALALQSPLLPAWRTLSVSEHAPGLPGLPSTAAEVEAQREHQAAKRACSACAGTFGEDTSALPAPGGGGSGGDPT
molecule,measurement,setting,value
"Nc1ncnc2c1nc(Sc1ccc(Cl)cc1)n2[C@@H]1O[C@@H]2COP([O-])(=S)O[C@H]2[C@H]1O.[Na+] (stereo partly drawn) [Sp-8-pCPT-cAMPS, reference compound]",HPLC Area %,[1]; Time 0.00 h,100%
same,HPLC Area %,[1]; Time 0.50 h,81.7%
same,HPLC Area %,[1]; Time 1.00 h,57.47%
same,HPLC Area %,"[1]; Time 1.50 h, RT",45.71%
same,HPLC Area %,[1]; Time 18.00 h,completely vanished
same,HPLC Area %,"[1]; Time 18.00 h, listed as Sp-8-pCPT-CAMPS",0%
same,degraded,[1]; after 1.5 hours at RT,more than 50%
"B[PH]1(O)OC[C@H]2O[C@@H](n3c(Sc4ccc(Cl)cc4)nc4c(N)ncnc43)C(O)[C@@H]2O1 (stereo partly drawn) [Rp-8-pCPT-cAMPB, 8-(4-Chlorophenylthio)adenosine-3′,5′-cyclic boranophosphate, Rp-isomer]",HPLC Area %,[1]; Time 0.00 h,100%
same,HPLC Area %,[1]; Time 0.50 h,87.51%
same,HPLC Area %,[1]; Time 1.00 h,82.89%
same,HPLC Area %,"[1]; Time 1.50 h, RT",79% and 79.25%
same,HPLC Area %,[1]; Time 18.00 h,30% and 29.56%
"O[C@@H]1[C@@H]2OP(O)(=S)OC[C@H]2O[C@H]1n1cnc2c(Cl)ncnc21 (single isomer, unassigned) [Sp-6-Cl-cPuMPS, 6-chloropurine-1-β-D-ribofuranoside-3′,5′-cyclic phosphorothioate, Sp-isomer, reference compound]",degraded,[2],37%
"6-Chloropurine-1-β-D-ribofuranoside-3′,5′-cyclic boranophosphate, Rp-isomer [Rp-6-Cl-cPuMPB]","peak area, % of the original area",[2],93%
"8-Bromoguanosine-3′,5′-cyclic boranophosphate, Rp-isomer [Rp-8-Br-cGMPB]",activation of protein kinase G,protein kinase G I α,activated the kinase
"2′-O-Methyladenosine-3′,5′-cyclic boranophosphate, Sp-isomer [Sp-2′-O-Me-cAMPB]",effect on protein kinase A type I alpha holoenzyme,[3],neither Rp- nor Sp-2′-O-Me-cAMPB did modulate the kinase in any way
"B[PH]1(O)OC[C@H]2O[C@@H](n3c(Sc4ccc(Cl)cc4)nc4c(N)ncnc43)C(OC)[C@@H]2O1 (stereo partly drawn) [Rp-8-pCPT-2′-O-Me-cAMPB, 8-(4-Chlorophenylthio)-2′-O-methyladenosine-3′,5′-cyclic boranophosphate, Rp-isomer]","peak area, % of the original area",[4],50%
"COC1C2OP(O)(=S)OCC2OC1n1cnc2c(N)ncnc21 (stereo not drawn) [Sp-2′-O-Me-cAMPS, reference compound]",half life of degradation,PDE 1 from bovine heart,1800 min
"CO[C@H]1C2OP(O)(=S)OC[C@H]2O[C@H]1n1c(Sc2ccc(Cl)cc2)nc2c(N)ncnc21 (stereo partly drawn) [Sp-8-pCPT-2′-O-Me-cAMPS, reference compound]","peak area, % of the original area",[4],completely degraded
"Nc1ncnc2c1ncn2[C@@H]1O[C@@H]2COP(=O)(O)O[C@H]2[C@H]1O [cAMP, cyclic adenosine-3′,5′-monophosphate, reference compound]",half-life,PDE IV (A4B),5 min
"B[PH]1(O)OC[C@H]2O[C@@H](n3ccc(N)nc3=O)C(O)[C@@H]2O1 (stereo partly drawn) [Rp-cCMPB, Cytidine-3′,5′-cyclic boranophosphate, Rp-isomer]",oxidation by peroxide,[5],considerably higher resistance
same,HPLC Area %,[5]; Time 0 min,100%
same,HPLC Area %,[5]; Time 10 min,99%
same,HPLC Area %,[5]; Time 20 min,98%
same,HPLC Area %,[5]; Time 34 min,96%
same,HPLC Area %,[5]; Time 65 min,91%
same,HPLC Area %,[5]; Time 81 min,84%
same,HPLC Area %,[5]; Time 92 min,78%
same,HPLC Area %,[5]; Time 98 min,79%
"Nc1ncnc2c1nc(Br)n2C1OC2COP(O)(=S)OC2C1O (stereo not drawn) [Rp-8-Br-cAMPS, Rp-8-bromoadenosine-3′,5′-cyclic phosphorothioate, reference compound]",HPLC signal after oxidation,[6],completely vanished
"Nc1ccn([C@@H]2O[C@@H]3COP(O)(=S)O[C@H]3[C@H]2O)c(=O)n1 (single isomer, unassigned) [Sp-cCMPS, cytidine-3′,5′-cyclic phosphorothioate, Sp-isomer, reference compound]",oxidation by peroxide,[5],rapidly oxidized
same,HPLC Area %,[5]; Time 0 min,100%
same,HPLC Area %,[5]; Time 10 min,94%
same,HPLC Area %,[5]; Time 20 min,85%
same,HPLC Area %,[5]; Time 34 min,69%
same,HPLC Area %,[5]; Time 65 min,46%
same,HPLC Area %,[5]; Time 81 min,23%
same,HPLC Area %,[5]; Time 92 min,14%
same,HPLC Area %,[5]; Time 98 min,13%
